Experimental data as given in patent publication US9856252B2, “2-(hetero)aryl-benzimidazole and imidazopyridine derivatives as inhibitors of asparagime emethyl transferase” (Cancer Therapeutics CRC Pty Ltd, priority 2013, dated 2018).
Where a name gives a salt, the structure may show the parent alone.

Biological target: Full-length PRMT5 enzyme (NCBI Reference sequence NP_006100.2) co-expressed with His6-MEP50 (Homo sapiens (Human), UniProt O14744)
Test: PRMT5 Biochemical Assay
Conditions: histone H4 derived peptide substrate 200 nM, 1 μM S-Adenosyl methionine, 4 hours at 37° C., Transcreener EPIGEN fluorescence polarisation
Procedure: Compounds of the invention may be tested for in vitro activity in the following assay: A histone H4 derived peptide is used as substrate (amino acid sequence: […]N H2). Full-length PRMT5 enzyme (NCBI Reference sequence NP_006100.2) was co-expressed with His6-MEP50 in insect cells and purified via Nickel immobilized metal affinity and gel filtration chromatography (“the enzyme”).
The 6 μL assay reactions are run in Greiner brand black 384-well low volume plates. All reactions contained assay buffer (phosphate buffered saline, 0.01% (v/v) Tween-20, 0.01% (w/v) albumin from chicken egg white, 1 mM dithiothreitol, 200 nM peptide substrate, 1 μM S-Adenosyl methionine, and 15 ng/reaction enzyme, with the enzyme being omitted from negative control reactions. Compounds were added in a volume of 100 nL from dilution series prepared in DMSO, positive and negative control reactions receiving the same volume DMSO without compound. The plates were sealed with adhesive seals and incubated for 4 hours at 37° C. Reaction progress was measured using the Transcreener™ EPIGEN methyltransferase assay (BellBrook Labs, Madison, Wis.) as recommended by the manufacturer. To each reaction 2 μL detection mix were added, containing coupling enzymes, fluorescence polarisation tracer, and AMP antibody. Plates were incubated for 90 minutes before being read on a PerkinElmer EnVision™ plate reader in fluorescence polarisation mode.

Chain of Full-length PRMT5 enzyme (NCBI Reference sequence NP_006100.2) co-expressed with His6-MEP50 (O14744 whole entry): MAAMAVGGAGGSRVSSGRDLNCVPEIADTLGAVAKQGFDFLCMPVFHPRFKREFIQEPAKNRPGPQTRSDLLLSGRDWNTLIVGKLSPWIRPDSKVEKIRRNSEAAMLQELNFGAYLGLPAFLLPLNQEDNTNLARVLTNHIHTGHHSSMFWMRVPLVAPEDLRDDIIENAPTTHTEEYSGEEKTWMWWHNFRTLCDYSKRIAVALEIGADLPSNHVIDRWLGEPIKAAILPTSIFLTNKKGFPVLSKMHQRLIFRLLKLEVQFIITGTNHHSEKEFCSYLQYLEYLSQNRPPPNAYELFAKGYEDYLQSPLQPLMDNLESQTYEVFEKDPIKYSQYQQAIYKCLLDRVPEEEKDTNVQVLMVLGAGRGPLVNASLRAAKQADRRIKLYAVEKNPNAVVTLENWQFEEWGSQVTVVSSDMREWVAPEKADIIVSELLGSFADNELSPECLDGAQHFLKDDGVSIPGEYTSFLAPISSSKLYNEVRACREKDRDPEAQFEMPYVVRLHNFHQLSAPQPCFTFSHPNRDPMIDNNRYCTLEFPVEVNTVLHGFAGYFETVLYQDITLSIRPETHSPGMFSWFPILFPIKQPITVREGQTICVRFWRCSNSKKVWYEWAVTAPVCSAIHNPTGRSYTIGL
Chain of Full-length PRMT5 enzyme (NCBI Reference sequence NP_006100.2) co-expressed with His6-MEP50 (Q9BQA1 whole entry partner): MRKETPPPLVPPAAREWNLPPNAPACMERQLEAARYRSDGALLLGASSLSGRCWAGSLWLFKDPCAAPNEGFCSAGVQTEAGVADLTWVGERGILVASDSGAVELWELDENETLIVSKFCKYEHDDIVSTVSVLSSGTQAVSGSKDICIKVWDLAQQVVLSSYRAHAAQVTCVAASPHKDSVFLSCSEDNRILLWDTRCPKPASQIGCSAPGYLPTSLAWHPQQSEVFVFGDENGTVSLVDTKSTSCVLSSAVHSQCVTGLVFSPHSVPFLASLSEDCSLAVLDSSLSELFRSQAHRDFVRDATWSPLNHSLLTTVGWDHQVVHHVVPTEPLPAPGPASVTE

| SMILES | IC50 |
| --- | --- |
| c1ccc(OCc2ccc(-c3nc4cccnc4[nH]3)cc2)cc1 [Example 1, 2-(4-(phenoxymethyl)phenyl)-3H-imidazo[4,5-b]pyridine] | 1490 nM |
| O=C(Nc1ccc(-c2nc3cccnc3[nH]2)cc1)c1ccccc1 [Example 3, N-(4-(3H-imidazo[4,5-b]pyridin-2-yl)phenyl)benzamide] | 3970 nM |
| CC(=O)N1CCC(c2cnc3[nH]c(-c4ccc(COc5ccccc5)cc4)nc3c2)CC1 [Example 10, 1-(4-(2-(4-(phenoxymethyl)phenyl)-3H-imidazo[4,5-b]pyridin-6-yl)piperidin-1-yl)ethanone] | 375 nM |
| CN1CCC(c2cnc3[nH]c(-c4ccc(COc5ccccc5)cc4)nc3c2)CC1 [Example 11, 6-(1-methylpiperidin-4-yl)-2-(4-(phenoxymethyl)phenyl)-3H-imidazo[4,5-b]pyridine] | 482 nM |
| CC(=O)N1CCC(c2cnc3[nH]c(-c4ccc(OCc5ccccc5)cc4)nc3c2)CC1 [Example 13, 1-(4-(2-(4-(Benzyloxy)phenyl)-3H-imidazo[4,5-b]pyridin-6-yl)piperidin-1-yl)ethanone] | 339 nM |
| O=S1(=O)CCN(c2ccc3nc(-c4ccc(OCc5ccccc5)cc4)[nH]c3n2)CC1 [Example 25, 4-(2-(4-(benzyloxy)phenyl)-3H-imidazo[4,5-b]pyridin-5-yl)thiomorpholine 1,1-dioxide] | 619 nM |
| CCS(=O)(=O)N1CCN(c2ccc3nc(-c4ccc(OCc5ccccc5)cc4)[nH]c3n2)CC1 [Example 27, 2-(4-(benzyloxy)phenyl)-5-(4-(ethylsulfonyl)piperazin-1-yl)-3H-imidazo[4,5-b]pyridine] | 148 nM |
| CN(c1ccc2nc(-c3ccc(OCc4ccccc4)cc3)[nH]c2n1)C1CCCN(C(=O)OC(C)(C)C)C1 (stereo not shown) [Example 30, tert-butyl 3-((2-(4-(benzyloxy)phenyl)-3H-imidazo[4,5-b]pyridin-5-yl)(methyl)amino)piperidine-1-carboxylate] | 2660 nM |
| Cn1ccc(-c2ccc3nc(-c4ccc(COc5ccccc5)cc4)[nH]c3n2)n1 [Example 38, 5-(1-methyl-1H-pyrazol-3-yl)-2-(4-(phenoxymethyl)phenyl)-3H-imidazo[4,5-b]pyridine] | 2390 nM |
| FC(F)(F)c1ccc(COc2ccc(-c3nc4ccc(N5CCNCC5)nc4[nH]3)cc2)cc1 [Example 56] | 1860 nM |
| Fc1ccccc1COc1ccc(-c2nc3ccc(N4CCNCC4)nc3[nH]2)cc1 [Example 57] | 981 nM |
| Fc1cccc(COc2ccc(-c3nc4ccc(N5CCNCC5)nc4[nH]3)cc2)c1 [Example 58] | 333 nM |
| Fc1ccc(COc2ccc(-c3nc4ccc(N5CCNCC5)nc4[nH]3)cc2)cc1 [Example 59] | 535 nM |
| FC(F)(F)c1ccccc1COc1ccc(-c2nc3ccc(N4CCNCC4)nc3[nH]2)cc1 [Example 60] | 1660 nM |
| Cn1cc(-c2cc(-c3nc4cc(C5CCNCC5)cnc4[nH]3)ccc2OCc2ccccc2)cn1 [Example 63, 2-(4-(benzyloxy)-3-(1-methyl-1H-pyrazol-4-yl)phenyl)-6-(piperidin-4-yl)-3H-imidazo[4,5-b]pyridine] | 215 nM |
| c1ccc(COc2ccc(-c3nc4cc(C5CCNCC5)cnc4[nH]3)cc2-c2cccnc2)cc1 [Example 64, 2-(4-(benzyloxy)-3-(pyridin-3-yl)phenyl)-6-(piperidin-4-yl)-3H-imidazo[4,5-b]pyridine] | 336 nM |
| Fc1cc(-c2nc3cc(C4CCNCC4)cnc3[nH]2)ccc1OCc1ccccc1 [Example 65, 2-(4-(benzyloxy)-3-fluorophenyl)-6-(piperidin-4-yl)-3H-imidazo[4,5-b]pyridine] | 276 nM |
| COC(=O)c1cc(-c2nc3cc(C4CCNCC4)cnc3[nH]2)ccc1OCc1ccccc1 [Example 66, methyl 2-(benzyloxy)-5-(6-(piperidin-4-yl)-3H-imidazo[4,5-b]pyridin-2-yl)benzoate dihydrogen chloride salt] | 608 nM |
| O=C(O)c1cc(-c2nc3cc(C4CCNCC4)cnc3[nH]2)ccc1OCc1ccccc1 [Example 67, 2-(benzyloxy)-5-(6-(piperidin-4-yl)-3H-imidazo[4,5-b]pyridin-2-yl)benzoic acid dihydrochloride salt] | 3720 nM |
| CCS(=O)(=O)N1CCN(c2ccc3nc(-c4ccc(OCc5ccccc5)c(-c5cnn(C)c5)c4)[nH]c3n2)CC1 [Example 69, 2-(4-(benzyloxy)-3-(1-methyl-1H-pyrazol-4-yl)phenyl)-5-(4-(ethylsulfonyl)piperazin-1-yl)-3H-imidazo[4,5-b]pyridine] | 447 nM |
| CCS(=O)(=O)N1CCN(c2ccc3nc(-c4ccc(OCc5ccccc5)c(-c5ccn[nH]5)c4)[nH]c3n2)CC1 [Example 70] | 1110 nM |
| CCS(=O)(=O)N1CCN(c2ccc3nc(-c4ccc(OCc5ccccc5)c(-c5cccnc5)c4)[nH]c3n2)CC1 [Example 71] | 542 nM |
| CCS(=O)(=O)N1CCN(c2ccc3nc(-c4ccc(OCc5ccccc5)c(C)c4)[nH]c3n2)CC1 [Example 74, 2-(4-(benzyloxy)-3-methylphenyl)-5-(4-(ethylsulfonyl)piperazin-1-yl)-3H-imidazo[4,5-b]pyridine] | 1360 nM |
| CCS(=O)(=O)N1CCN(c2ccc3nc(-c4ccc(OCc5ccccc5)c(OC)c4)[nH]c3n2)CC1 [Example 75, 2-(4-(benzyloxy)-3-methoxyphenyl)-5-(4-(ethylsulfonyl)piperazin-1-yl)-3H-imidazo[4,5-b]pyridine] | 306 nM |
| O=C(O)Cc1ccnc2[nH]c(-c3ccc(OCc4ccccc4)cc3)nc12 [Example 77, 2-(2-(4-(benzyloxy)phenyl)-3H-imidazo[4,5-b]pyridin-7-yl)acetic acid] | 901 nM |

More lines, now with the values ahead:

| IC50 | SMILES |
| --- | --- |
| 847 nM | c1ccc(COc2ccc(-c3nc4ccc(Nc5cn[nH]c5)nc4[nH]3)cc2)cc1 [Example 20, 2-(4-(benzyloxy)phenyl)-N-(1H-pyrazol-4-yl)-3H-imidazo[4,5-b]pyridin-5-amine] |
| 774 nM | O=C1CNCCN1c1ccc2nc(-c3ccc(OCc4ccccc4)cc3)[nH]c2n1 [Example 21, 1-(2-(4-(benzyloxy)phenyl)-3H-imidazo[4,5-b]pyridin-5-yl)piperazin-2-one] |
| 487 nM | CC(=O)NCCNc1ccc2nc(-c3ccc(OCc4ccccc4)cc3)[nH]c2n1 [Example 22, N-(2-((2-(4-(benzyloxy)phenyl)-3H-imidazo[4,5-b]pyridin-5-yl)amino)ethyl)acetamide] |
| 497 nM | c1ccc(COc2ccc(-c3nc4ccc(N5CCSCC5)nc4[nH]3)cc2)cc1 [Example 23, 4-(2-(4-(benzyloxy)phenyl)-3H-imidazo[4,5-b]pyridin-5-yl)thiomorpholine] |
| 570 nM | [O-][S+]1CCN(c2ccc3nc(-c4ccc(OCc5ccccc5)cc4)[nH]c3n2)CC1 [Example 24, 4-(2-(4-(benzyloxy)phenyl)-3H-imidazo[4,5-b]pyridin-5-yl)thiomorpholine 1-oxide] |
| 132 nM | CN1CCN(c2ccc3nc(-c4ccc(OCc5ccccc5)cc4)[nH]c3n2)CC1 [Example 26, 2-(4-(benzyloxy)phenyl)-5-(4-methylpiperazin-1-yl)-3H-imidazo[4,5-b]pyridine] |
| 1680 nM | CC(C)(C)OC(=O)NCC1CCCN(c2ccc3nc(-c4ccc(OCc5ccccc5)cc4)[nH]c3n2)C1 (stereo not shown) [Example 28, tert-butyl ((1-(2-(4-(benzyloxy)phenyl)-3H-imidazo[4,5-b]pyridin-5-yl)piperidin-3-yl)methyl)carbamate] |
| 1240 nM | CC(C)(C)OC(=O)N1CCC(CNc2ccc3nc(-c4ccc(OCc5ccccc5)cc4)[nH]c3n2)CC1 [Example 31, tert-butyl 4-(((2-(4-(benzyloxy)phenyl)-3H-imidazo[4,5-b]pyridin-5-yl)amino)methyl)piperidine-1-carboxylate] |
| 827 nM | CC(C)(C)OC(=O)N1CCC(Nc2ccc3nc(-c4ccc(OCc5ccccc5)cc4)[nH]c3n2)CC1 [Example 32, tert-butyl 4-((2-(4-(benzyloxy)phenyl)-3H-imidazo[4,5-b]pyridin-5-yl)amino)piperidine-1-carboxylate] |
| 204 nM | c1ccc(OCc2ccc(-c3nc4ccc(C5CCCNC5)nc4[nH]3)cc2)cc1 (stereo not shown) [Example 35, 2-(4-(phenoxymethyl)phenyl)-5-(piperidin-3-yl)-3H-imidazo[4,5-b]pyridine] |
| 197 nM | c1ccc(COc2ccc(-c3nc4ccc(N5CCNCC5)nc4[nH]3)cc2)cc1 [Example 47, 2-(4-(benzyloxy)phenyl)-5-(piperazin-1-yl)-3H-imidazo[4,5-b]pyridine] |
| 450 nM | CN(C)c1ccc2nc(-c3ccc(OCc4ccccc4)cc3)[nH]c2n1 [Example 48, 2-(4-(benzyloxy)phenyl)-N,N-dimethyl-3H-imidazo[4,5-b]pyridin-5-amine] |
| 317 nM | NCC1CCCN(c2ccc3nc(-c4ccc(OCc5ccccc5)cc4)[nH]c3n2)C1 (stereo not shown) [Example 50] |
| 547 nM | c1ccc(COc2ccc(-c3nc4ccc(NCC5CCCCN5)nc4[nH]3)cc2)cc1 (stereo not shown) [Example 51] |
| 935 nM | c1ccc(COc2ccc(-c3nc4ccc(NCC5CCNCC5)nc4[nH]3)cc2)cc1 [Example 52] |
| 581 nM | c1ccc(COc2ccc(-c3nc4ccc(NC5CCNCC5)nc4[nH]3)cc2)cc1 [Example 53] |
| 583 nM | NC1CCN(c2ccc3nc(-c4ccc(OCc5ccccc5)cc4)[nH]c3n2)CC1 [Example 54] |
| 426 nM | NCC1CCN(c2ccc3nc(-c4ccc(OCc5ccccc5)cc4)[nH]c3n2)CC1 [Example 55] |
